Assay results published in patent US20230000816A1, “SODIUM-GLUCOSE LINKED TRANSPORTER INHIBITORS FOR THE MANAGEMENT OF CHRONIC KIDNEY DISEASE, HYPERTENSION, AND HEART FAILURE IN COMPANION ANIMALS” (INCREVET, INC., priority 2019, published 2023).

Tests used:
human SGLT2 = molecular target: T1, human SGLT2 (Homo sapiens, UniProt P31639); assay: Inhibition of human SGLT2
T1 sequence (P31639 1-672): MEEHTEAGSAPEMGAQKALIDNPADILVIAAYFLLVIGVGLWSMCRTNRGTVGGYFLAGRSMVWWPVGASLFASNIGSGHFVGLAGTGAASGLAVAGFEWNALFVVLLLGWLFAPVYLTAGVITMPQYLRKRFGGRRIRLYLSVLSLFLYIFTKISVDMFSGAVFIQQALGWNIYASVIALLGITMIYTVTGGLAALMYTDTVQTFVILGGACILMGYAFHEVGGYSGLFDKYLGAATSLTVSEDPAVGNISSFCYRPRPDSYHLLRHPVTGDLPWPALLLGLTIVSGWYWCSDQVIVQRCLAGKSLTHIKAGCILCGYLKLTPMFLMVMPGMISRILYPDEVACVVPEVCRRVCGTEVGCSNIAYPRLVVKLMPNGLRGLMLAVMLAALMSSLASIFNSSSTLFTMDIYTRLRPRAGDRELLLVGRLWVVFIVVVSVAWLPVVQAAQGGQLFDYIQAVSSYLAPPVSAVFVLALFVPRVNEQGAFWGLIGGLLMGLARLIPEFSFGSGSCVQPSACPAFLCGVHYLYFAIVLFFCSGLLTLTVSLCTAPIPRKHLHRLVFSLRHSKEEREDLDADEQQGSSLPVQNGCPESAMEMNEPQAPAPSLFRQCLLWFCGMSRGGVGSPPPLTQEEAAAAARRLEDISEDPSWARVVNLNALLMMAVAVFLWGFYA

purpose-bred beagles [1] = assay: 24 h urine collection (glucose excretion, volume, electrolytes) in dogs; format: in vivo, dog; details: for 24 h urine Cl^− / 24 h urine K^+ / 24 h urine Na^+ / 24 h urine Volume: mean ± SD, n=4
Experimental: (§1) Groups of four purpose-bred beagles per cohort were administered ascending doses of bexagliflozin in the form of a proline co-crystal consisting of two moles of L-proline for every mole of bexagliflozin. The co-crystal was dissolved in 10% PEG400 and administered by oral gavage to dogs that had been fasted overnight. Control dogs were administered 10% PEG400. One hour after dosing, glucose solution (2 g kg^−1, 5 ml kg^−1) was administered by gavage. Serum glucose concentrations were quantitated by an automated clinical chemistry analyzer for samples collected before dosing, before glucose challenge, and 15, 30, 60, and 120 min after glucose challenge. Urine was collected from 0 to 4 h, 4 to 8 h and 8 to 24 h after dosing for electrolyte analyses (Na^+, K^+, Cl^− and Ca^2+) and glucose measurement. Whole blood samples of approximately 500 μL were collected from the cephalic vein 0, 0.25, 0.5, 1, 2, 4, 8, 12 and 24 h after dosing for pharmacokinetic analysis.
Urine output increased in the treatment group, consistent with an osmotic diuresis or with a role for the inhibited transporters in water reuptake in the proximal tubule.

cats with diabetes = assay: Measures of renal health (creatinine, BUN, SDMA) in diabetic cats managed with bexagliflozin, MMRM analysis; format: in vivo, cat
Description: Venous blood specimens were collected at regular intervals and analyzed for standard parameters of interest for routine clinical care, including creatinine, BUN and SDMA. Owners were advised to provide a diet low in carbohydrates as an element of the disease management plan. An important consequence of the shift to a low carbohydrate diet is the increase in dietary protein (contributing to BUN) and specifically dietary muscle-derived protein (contributing to creatinine).
FIG. 6, FIG. 7 and FIG. 8 show the measured concentrations of creatinine, BUN and SDMA in cats as a function of time in the study. […] Considerable variation can be seen in the individual values.
To identify treatment-related trends, the data for each of the three analytes were analyzed by a mixed model repeated measures (MMRM) analysis of covariance, with cat as a categorical (class) effect and day of measurement and initial value at the baseline visit as continuous covariates. Because the diets of many of the animals were changed at the baseline visit, and the effects of diet on creatinine and BUN are generally thought to be prompt, the analysis considered only changes in analyte values over the non-baseline visit days.

purpose-bred beagles [2] = assay: Serum glucose after single oral dose and glucose challenge 1 h post-dose in dogs; format: in vivo, dog; details: mean ± SD; for Serum Glucose Concentration, 15 min / Serum Glucose Concentration, 30 min / Serum Glucose Concentration, 60 min / Serum Glucose Concentration, 120 min: after glucose challenge; for Serum Glucose Concentration, −60 min: before dosing; for Serum Glucose Concentration, 0 min: before glucose challenge (1 h post-dose)
Experimental: as §1

feline SGLT1 = assay: Inhibition of feline SGLT1
feline SGLT2 = assay: Inhibition of feline SGLT2

## OC[C@H]1O[C@@H](c2ccc(Cl)c(Cc3ccc(OCCOC4CC4)cc3)c2)[C@H](O)[C@@H](O)[C@@H]1O [Bexagliflozin, (2S,3R,4R,5 S,6R)-2-(4-chloro-3-(4-(2-cyclopropoxyethoxy)benzyl)phenyl)-6-(hydroxymethyl)tetrahydro-2H-pyran-3,4,5-triol]
Human SGLT2
  inhibition of human SGLT2 (in words): highly effective and specific inhibitor
purpose-bred beagles [1]; dogs, 0.02 mg kg^−1 oral
  24 h urine Cl^−: 307.4 ± 87.7 mg
  24 h urine K^+: 426.2 ± 62.1 mg
  24 h urine Na^+: 178.7 ± 16.7 mg
  24 h urine Volume: 118.0 ± 30.8 mL
purpose-bred beagles [1]; dogs, 0.067 mg kg^−1 oral
  24 h urine Cl^−: 403.4 ± 111.4 mg
  24 h urine K^+: 476.8 ± 96.5 mg
  24 h urine Na^+: 220.9 ± 53.9 mg
  24 h urine Volume: 153.1 ± 44.5 mL
purpose-bred beagles [1]; dogs, 0.20 mg kg^−1 oral
  24 h urine Cl^−: 526.5 ± 127.8 mg
  24 h urine K^+: 558.8 ± 118.2 mg
  24 h urine Na^+: 275.7 ± 69.5 mg
  24 h urine Volume: 214.1 ± 53.5 mL
purpose-bred beagles [1]; dogs, 0.67 mg kg^−1 oral
  24 h urine Cl^−: 573.9 ± 166.5 mg
  24 h urine K^+: 587.7 ± 113.5 mg
  24 h urine Na^+: 300.2 ± 66.4 mg
  24 h urine Volume: 225.0 ± 66.9 mL
purpose-bred beagles [1]; dogs, 2.0 mg kg^−1 oral
  24 h urine Cl^−: 595.8 ± 80.6 mg
  24 h urine K^+: 599.7 ± 93.5 mg
  24 h urine Na^+: 313.1 ± 35.1 mg
  24 h urine Volume: 247.7 ± 35.2 mL
purpose-bred beagles [1]; dogs, approximately 1 mg kg^−1 once daily
  % of the maximum pharmacological effect: approximately 90%
purpose-bred beagles [1]; dogs, average mass 5.84 kg
  maximum urinary glucose excretion per body mass: 4.23 g glucose per kg of body mass
purpose-bred beagles [1]; dogs, dose 50 μg kg^−1, based on results in beagle dogs
  % of the maximum pharmacodynamic effect: 30%
purpose-bred beagles [1]; dogs, dose 100 μg kg^−1
  % of the maximum pharmacodynamic effect: 46%
purpose-bred beagles [1]; dogs, dose 200 μg kg^−1
  % of the maximum pharmacodynamic effect: 63%
purpose-bred beagles [1]; dogs, dose 400 μg kg^−1
  % of the maximum pharmacodynamic effect: 77%
purpose-bred beagles [1]; dogs, dose 800 μg kg^−1
  % of the maximum pharmacodynamic effect: 87%
purpose-bred beagles [1]; dogs, dose 1600 μg kg^−1
  % of the maximum pharmacodynamic effect: 93%
purpose-bred beagles [1]; dogs, dose 3200 μg kg^−1
  % of the maximum pharmacodynamic effect: 96%
purpose-bred beagles [1]; dogs, eighth value, no matching dose printed
  % of the maximum pharmacodynamic effect: 98%
purpose-bred beagles [1]; dogs, simple logistic model fit
  Emax for urinary glucose excretion: 24.69 g of glucose in 24 h
purpose-bred beagles [1]; dogs, simple logistic model fit, doses 0.02 to 2.0 mg kg^−1
  ED50 for 24 h urinary glucose excretion: 0.116 mg/kg
purpose-bred beagles [1]; urinary glucose excretion ED50, dogs vs cats
  potency by ED50 in dogs relative to cats: approximately 4 times
Cats with diabetes; diabetic cats on bexagliflozin
  model-adjusted population mean BUN concentration: 33.82 mg/dL
  model-adjusted population mean SDMA concentration: 19.10 µg/dL
Cats with diabetes; diabetic cats on bexagliflozin, non-baseline visits
  model-adjusted population mean creatinine concentration: 1.367 mg/dL
Cats with diabetes; diabetic cats, p<0.0001
  estimated coefficient for day of measurement, creatinine: 0.000928
Cats with diabetes; diabetic cats, p=0.0172
  estimated coefficient for day of measurement, BUN: −0.01346
Cats with diabetes; diabetic cats, p=0.5338, not significant
  estimated coefficient for day of measurement, SDMA: −0.0021
purpose-bred beagles [2]; 0.02 mg kg^−1 oral
  Serum Glucose Concentration, 15 min: 122.13 ± 17.54 mg/dL
  Serum Glucose Concentration, 30 min: 97.43 ± 6.87 mg/dL
  Serum Glucose Concentration, 60 min: 93.29 ± 19.87 mg/dL
  Serum Glucose Concentration, 120 min: 78.03 ± 10.98 mg/dL
  Serum Glucose Concentration, 0 min: 95.94 ± 8.37 mg/dL
purpose-bred beagles [2]; 0.02 mg kg^−1 oral, time relative to glucose challenge
  Serum Glucose Concentration, −60 min: 100.89 ± 3.49 mg/dL
purpose-bred beagles [2]; 0.067 mg kg^−1 oral
  Serum Glucose Concentration, 15 min: 107.91 ± 12.08 mg/dL
  Serum Glucose Concentration, 30 min: 104.31 ± 26.84 mg/dL
  Serum Glucose Concentration, 60 min: 104.27 ± 17.85 mg/dL
  Serum Glucose Concentration, 120 min: 79.65 ± 11.69 mg/dL
  Serum Glucose Concentration, −60 min: 98.64 ± 7.63 mg/dL
  Serum Glucose Concentration, 0 min: 91.58 ± 6.49 mg/dL
purpose-bred beagles [2]; 0.20 mg kg^−1 oral
  Serum Glucose Concentration, 15 min: 96.71 ± 7.21 mg/dL
  Serum Glucose Concentration, 30 min: 105.48 ± 18.67 mg/dL
  Serum Glucose Concentration, 60 min: 101.75 ± 14.83 mg/dL
  Serum Glucose Concentration, 120 min: 76.10 ± 7.91 mg/dL
  Serum Glucose Concentration, −60 min: 97.02 ± 7.61 mg/dL
  Serum Glucose Concentration, 0 min: 84.65 ± 7.98 mg/dL
purpose-bred beagles [2]; 0.67 mg kg^−1 oral
  Serum Glucose Concentration, 15 min: 109.94 ± 17.55 mg/dL
  Serum Glucose Concentration, 30 min: 109.04 ± 26.58 mg/dL
  Serum Glucose Concentration, 60 min: 106.79 ± 11.98 mg/dL
  Serum Glucose Concentration, 120 min: 76.95 ± 11.53 mg/dL
  Serum Glucose Concentration, −60 min: 97.70 ± 5.27 mg/dL
  Serum Glucose Concentration, 0 min: 87.08 ± 6.03 mg/dL
purpose-bred beagles [2]; 2.0 mg kg^−1 oral
  Serum Glucose Concentration, 15 min: 104.49 ± 9.60 mg/dL
  Serum Glucose Concentration, 30 min: 112.86 ± 9.82 mg/dL
  Serum Glucose Concentration, 60 min: 108.81 ± 6.77 mg/dL
  Serum Glucose Concentration, 120 min: 71.06 ± 5.49 mg/dL
  Serum Glucose Concentration, −60 min: 92.21 ± 7.11 mg/dL
  Serum Glucose Concentration, 0 min: 85.10 ± 4.74 mg/dL
Feline SGLT1
  potency for feline SGLT1 (in words): high potency
Feline SGLT2
  inhibition of feline SGLT2 (in words): potent but less selective inhibitor
